Experimental data published in US7632794B1, “Lens care solutions comprising alkyldimonium hydroxypropyl alkylglucosides” (Bausch & Lomb Incorporated, priority 2008, dated 2009).

Tested on: five microorganisms tested (three bacterium and two fungal strains)
Experiment: Biocidal efficacy across the microorganisms tested
Type: cell-based
Conditions: aqueous buffered borate solution
Excerpt: Accordingly, a composition containing as little as 75 ppm of S-1218 and 50 ppm of L-1010P is shown to have very strong biocidal activity against all five microorganisms.

| Substance | biocidal efficacy (in words) |
| --- | --- |
| stearyl dimoniumhydropropyl decylglucoside | relatively high increase in biocidal efficacy |
| stearyl dimoniumhydropropyl laurylglucoside | relatively high increase in biocidal efficacy |
